Here are results for five compounds from patent publication US10590454B2, “Methods of preventing and removing trisulfide bonds” (Biogen MA Inc., priority 2011, dated 2020).

The test system of data set [1] is cysteine degradation (release of hydrogen sulfide). Put plainly: Release of hydrogen sulfide from cysteine-containing medium with inhibitors of cysteine degradation. The conditions noted are these: cell-culture medium, inhibitor 17.7 mM (1:1 to cysteine), 24 hours. As for the experimental part:
In order to test the effect of cysteine degradation inhibitors on release of hydrogen sulfide in cell-culture medium, various inhibitors were added to the medium at the concentration of 17.7 mM, which represents a 1:1 ratio to the concentration of cysteine in the medium. Released hydrogen sulfide concentration was measured after 24 hours of incubation. Briefly, 50 ml of medium was incubated overnight in a closed 100 ml bottle. The headspace was therefore equal to the liquid volume of the container. A Jerome 631-X hydrogen sulfide detector was connected to a short piece of silicon tubing to minimize holdup volume in the instrument. The end of the tubing was inserted into the headspace of the medium-containing bottle, and the Jerome 631-X detector sampled the headspace immediately after opening the bottle.
The effect of pyruvate on release of hydrogen sulfide from cysteine degradation was further tested. The experiments were performed as described above in Example 9. Concentration of released hydrogen sulfide was measured after incubation from solutions containing 17.7 mM cysteine, plus 200 g/L glucose or subgroups of amino acids, in the absence or presence of pyruvate.
The effect of pyruvate on release of hydrogen sulfide from cysteine degradation was also tested in various cell-culture media, including feed liquid, IMDM and DMEM. All cysteine concentrations were normalized to that in the feed liquid. 17.7 mM pyruvate was added to the medium, which represents a 1:1 ratio of cysteine to pyruvate in the medium. The experiments were performed as described above for Example 9. […] Thus, pyruvate can reduce cysteine degradation and H2S release in a variety of compositions and decrease the number of trisulfide bonds.

The nature of data set [2]: Differential scanning calorimetry. Type of data set: physicochemical. The settings on record: preparations with low or high H-L trisulfide or treated with 1 mM cysteine; 25° C. to 100° C. The protocol: The DSC was performed using a MicroCal capillary VP-DSC system (Northampton, Mass., USA) with Origin VPViewer2000 v2.0.64 software. Sample concentration was 0.5 mg/mL in 50 mM sodium phosphate, 100 mM NaCl, pH 6.0. Thermograms were generated by scanning temperature from 25° C. to 100° C. at a rate of 2° C./min.
(DSC measures the heat that a sample takes up or gives off during a temperature scan.)

A short description of data set [3]: Heat induced fragmentation, non-reducing capillary electrophoresis (CE-SDS). The format is physicochemical. The settings on record: 70° C. for 3 minutes with iodoacetamide; compared to mAb-A-LT. The protocol: In these experiments, analysis of IgG1 mAb was performed by denaturing, non-reducing capillary electrophoresis in the presence of sodium dodecyl sulfate using an IgG Purity/Heterogeneity Assay Kit (# A10663) and ProteomeLab PA-800 instrument (Beckman Coulter). Samples (200 μg) were prepared by heating to 70° C. for 3 minutes in the presence of iodoacetamide, 1 mM SDS and a 10 kDa standard essentially as per manufacturer's instructions (Protocol A10424-AC) and separated for 35 min in a bare fused silica capillary with detection at 220 nm. The results, shown in FIGS. 1A and 1B show an increased level of fragmentation following sample preparation for non-reducing electrophoresis. The electrophoretic migration pattern of the single most abundant fragment was consistent with the loss of one light chain (L) from the intact mAb with the simultaneous generation of a species consisting of two heavy chains and one light chain (HHL fragment). This phenomenon was then used to rapidly screen for conditions that influence trisulfide content in IgG1 mAbs. In this screen, non-reducing electrophoresis was used as a rapid assay for detection of trisulfide bonds.

The nature of data set [4]: Stability of trisulfides in vivo in rats after intraperitoneal injection. The settings on record: rat, 100 mg/kg intraperitoneally, based on column recoveries.
Description: The samples were incubated with 100 μL of the resin for 2 h at room temperature with mild agitation. The resin was then washed six times with 0.5 mL of PBS and six times with 0.5 mL of 25 mM sodium phosphate, 100 mM NaCl, pH 5.5, after which the bound antibody was eluted with 25 mM sodium phosphate, pH 2.8, 100-mM NaCl. […] Portions of the serum (750 μL for the 24-h point, and 1050 μL for the 72-h point) were subjected to IgSelect purification using 150 μL of IgSelect (protocol described above).

As for `O=CC(O)CO` (racemic) [DL-glyceraldehyde], the “Release of hydrogen sulfide” value in data set [1] was “functionally stopped release of hydrogen sulfide”. In the case of `CCOC(=O)C(C)=O` [ethyl pyruvate], the “Release of hydrogen sulfide” value in data set [1] is reported as “functionally stopped release of hydrogen sulfide”. Regarding “mAb1: anti-LINGO-1 antibody Li81, human IgG1 produced in CHO cells”, the Transition temperature profiles entry in data set [2] is “no differences in transition temperature profiles detected”. Further, in data set [3], the “Sensitivity to heat treatment (fragmentation to HHL species)” value is on record as “increased sensitivity to extreme heat treatment”. For the same compound, the results for the “Level of mAb1 in the serum” value in data set [4] (after 24 h) and in data set [4] (after 72 h) were 850 µg/mL and 700 µg/mL, respectively. `O=CC(=O)O` [glyoxylic acid]: in data set [1], the “Release of hydrogen sulfide” value was “functionally stopped release of hydrogen sulfide”.

Turning to `COC(=O)C(C)=O` [methyl pyruvate], the “Release of hydrogen sulfide” value in data set [1] was “functionally stopped release of hydrogen sulfide”.
